# Target: T1, hT1R2/hT1R3 sweet receptor expressed in HEK293 cell line (Homo sapiens, UniProt Q7RTX0+Q8TE23)
# T1 construct: expressed in transfected cells; host or cells: HEK293 derivative stably expressing Gα15 and hT1R2/hT1R3, clone S-9
# T1 sequence (Q8TE23 20-839): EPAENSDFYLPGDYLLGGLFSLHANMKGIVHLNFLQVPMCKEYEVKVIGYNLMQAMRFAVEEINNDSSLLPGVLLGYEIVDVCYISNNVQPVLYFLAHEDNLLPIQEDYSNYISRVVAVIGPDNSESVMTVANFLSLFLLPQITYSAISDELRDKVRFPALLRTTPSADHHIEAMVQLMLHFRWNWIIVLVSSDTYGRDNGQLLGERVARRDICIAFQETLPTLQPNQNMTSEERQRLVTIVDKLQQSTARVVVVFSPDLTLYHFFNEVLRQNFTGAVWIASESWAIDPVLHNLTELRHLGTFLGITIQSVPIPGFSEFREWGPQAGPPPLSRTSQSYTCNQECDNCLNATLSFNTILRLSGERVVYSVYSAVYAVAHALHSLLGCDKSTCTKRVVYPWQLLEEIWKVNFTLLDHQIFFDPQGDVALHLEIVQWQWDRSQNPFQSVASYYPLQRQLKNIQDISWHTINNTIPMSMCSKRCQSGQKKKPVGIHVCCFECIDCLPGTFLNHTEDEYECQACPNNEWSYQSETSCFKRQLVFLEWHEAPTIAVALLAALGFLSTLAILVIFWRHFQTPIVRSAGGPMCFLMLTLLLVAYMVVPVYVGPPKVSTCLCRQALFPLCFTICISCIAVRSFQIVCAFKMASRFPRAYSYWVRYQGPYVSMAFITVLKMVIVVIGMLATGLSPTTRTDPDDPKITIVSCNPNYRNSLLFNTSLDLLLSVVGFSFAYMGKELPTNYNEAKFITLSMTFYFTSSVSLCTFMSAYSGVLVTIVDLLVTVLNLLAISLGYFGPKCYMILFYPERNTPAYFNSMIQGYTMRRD
# T1 sequence (Q7RTX0 21-852): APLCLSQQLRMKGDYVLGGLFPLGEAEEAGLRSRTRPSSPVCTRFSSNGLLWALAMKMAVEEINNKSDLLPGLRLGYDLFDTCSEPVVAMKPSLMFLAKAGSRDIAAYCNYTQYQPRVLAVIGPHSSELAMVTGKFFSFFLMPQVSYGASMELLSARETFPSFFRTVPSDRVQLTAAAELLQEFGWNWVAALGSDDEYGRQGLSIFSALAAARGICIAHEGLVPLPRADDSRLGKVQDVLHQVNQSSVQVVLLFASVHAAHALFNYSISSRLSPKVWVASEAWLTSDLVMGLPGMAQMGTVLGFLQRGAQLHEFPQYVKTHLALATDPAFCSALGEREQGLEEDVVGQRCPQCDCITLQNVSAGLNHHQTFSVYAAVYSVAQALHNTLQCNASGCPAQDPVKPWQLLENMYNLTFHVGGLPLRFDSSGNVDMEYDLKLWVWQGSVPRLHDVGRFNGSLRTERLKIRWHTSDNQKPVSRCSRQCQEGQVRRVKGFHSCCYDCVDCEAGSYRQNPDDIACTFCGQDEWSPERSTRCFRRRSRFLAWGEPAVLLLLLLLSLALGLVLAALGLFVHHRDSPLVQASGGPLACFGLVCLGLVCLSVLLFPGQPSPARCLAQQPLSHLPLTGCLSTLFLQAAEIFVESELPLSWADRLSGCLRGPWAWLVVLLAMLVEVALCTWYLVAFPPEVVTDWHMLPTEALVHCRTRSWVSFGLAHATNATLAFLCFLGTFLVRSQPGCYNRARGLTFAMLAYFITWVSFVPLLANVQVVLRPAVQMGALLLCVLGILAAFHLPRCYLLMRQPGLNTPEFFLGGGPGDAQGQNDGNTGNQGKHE
# Assay: In vitro hT1R2/hT1R3-HEK293 taste receptor activation assay (FLIPR)
# Type: cell-based
# Conditions: read-out: EC50 for activation of a hT1R2/hT1R3 sweet receptor expressed in HEK293 cell line
# Experimental: An HEK293 cell line derivative (Chandrashekar et al., Cell (2000) 100:703-711) that stably expresses Gα15 and hT1R2/hT1R3 (Li et al., Proc Natl Acad Sci USA (2002) 99:4692-4696), see also PCT Publication No. WO 03/001876 A2) was used to identify compounds with sweet taste enhancing properties.
# Compounds covered in this document were initially selected based on their activity on the hT1R2/hT1R3-HEK293-Gα15 cell line (Li et al. vide supra). Activity was determined using an automated fluorometric imaging assay on a FLIPR instrument ([…], Molecular Devices, Sunnyvale, Calif.) (designated FLIPR assay). Cells from one clone (designated S-9 cells) were seeded into 384-well plates (at approximately 50,000 cells per well) in a medium containing DMEM Low Glucose (Invitrogen, Carlsbad, Calif.), 10% dialyzed fetal bovine serum (Invitrogen, Carlsbad, Calif.), 100 Units/ml Penicillin G, and 100 μg/ml Streptomycin (Invitrogen, Carlsbad, Calif.) (Li et al. vide supra) see also PCT Publication No. WO 03/001876 A2). S-9 cells were grown for 24 hours at 37° C. S-9 cells were then loaded with the calcium dye Fluo-3AM (Molecular Probes, Eugene, Oreg.), 4 μM in a phosphate buffered saline (D-PBS) (Invitrogen, Carlsbad, Calif.), for 1 hour at room temperature. After replacement with 25 μl D-PBS, stimulation was performed in the FLIPR instrument and at room temperature by the addition of 25 μl D-PBS supplemented with different stimuli at concentrations corresponding to twice the desired final level. Receptor activity was quantified by determining the maximal fluorescence increases (using a 480 nm excitation and 535 nm emission) after normalization to basal fluorescence intensity measured before stimulation.
# For dose-responses analysis, stimuli were presented in duplicates at 10 different concentrations ranging from 60 nM to 30 μM. Activities were normalized to the response obtained with 400 mM D-fructose, a concentration that elicits maximum receptor response. EC50s were determined using a non-linear regression algorithm (using a Senomyx, Inc. software), where the Hill slope, bottom asymptotes and top asymptotes were allow to vary. Identical results were obtained when analyzing the dose-response data using commercially available software for non-linear regression analysis such as GraphPad PRISM (San Diego, Calif.).
row,EC50,Compound
1,140 nM,CC(C)[C@@H](C)NC(=O)C(C)(C)c1ccc(-c2cncc(C#N)c2)cc1 [Compound 22]
2,7540 nM,"CC(C)CNC(=O)C(NC(=O)OC(C)(C)C)c1ccc(-c2ccccc2)cc1 (stereo not drawn) [Compound 24, tert-butyl 1-(biphenyl-4-yl)-2-(isobutylamino)-2-oxoethylcarbamate]"
3,260 nM,"CCOCc1cncc(-c2ccc(C(C)(C)C(=O)NCC(C)C)cc2)c1 [Compound 26, 2-(4-(5-(ethoxymethyl)pyridin-3-yl)phenyl)-N-isobutyl-2-methylpropanamide]"
4,350 nM,"CC(C)CNC(=O)C(C)(C)c1ccc(-n2cccc2)cc1 [Compound 28, 2-(4-(1H-pyrrol-1-yl)phenyl)-N-isobutyl-2-methylpropanamide]"
5,260 nM,"COCc1cncc(-c2ccc(C(C)(C)C(=O)NCC(C)C)cc2)n1 [Compound 29, N-isobutyl-2-(4-(6-(methoxymethyl)pyrazin-2-yl)phenyl)-2-methylpropanamide]"
6,14900 nM,"CC(C)CNC(=O)C(C)(C)c1cnn(-c2ccccc2)c1 [Compound 31, N-isobutyl-2-methyl-2-(1-phenyl-1H-pyrazol-4-yl)propanamide]"
7,6750 nM,"CC(C)CNC(=O)C(C)(C)c1cc(-c2ccccc2)no1 [Compound 33, N-isobutyl-2-methyl-2-(3-phenylisoxazol-5-yl)propanamide]"
8,1040 nM,"Cc1cscc1-c1ccc(C(C)(C)C(=O)NCC(C)C)cc1O [Compound 35, 2-(3-hydroxy-4-(4-methylthiophen-3-yl)phenyl)-N-isobutyl-2-methylpropanamide]"
9,1050 nM,"CC(C)CNC(=O)C(C)(C)c1ccc(-c2ccccc2CO)cc1 [Compound 36, 2-(2′-(hydroxymethyl)biphenyl-4-yl)-N-isobutyl-2-methylpropanamide]"
10,810 nM,"CC(C)CNC(=O)C(C)(C)c1ccc(-c2ccccc2C=O)cc1 [Compound 37, 2-(2′-formylbiphenyl-4-yl)-N-isobutyl-2-methylpropanamide]"
11,2190 nM,"CC(C)CNC(=O)C(C)(C)c1ccc(-c2cncc(C#N)c2)nc1 [Compound 40, 2-(5′-cyano-2,3′-bipyridin-5-yl)-N-isobutyl-2-methylpropanamide]"

# The next lines start with the compound.
row,Compound,EC50
1,"CC(C)CNC(=O)C(C)(C)c1ccc(-c2ccoc2)cc1 [Compound 1, 2-(4-(Furan-3-yl)phenyl)-N-isobutyl-2-methylpropanamide]",340 nM
2,"CC(C)CNC(=O)C(C)c1ccc(-c2ccccc2)c(F)c1 (stereo not drawn) [Compound 3, 2-(2-fluorobiphenyl-4-yl)-N-isobutylpropanamide]",2800 nM
3,"CC(C(=O)NCc1ccco1)c1ccc(-c2ccccc2)c(F)c1 (stereo not drawn) [Compound 4, 2-(2-fluorobiphenyl-4-yl)-N-(furan-2-ylmethyl)propanamide]",4550 nM
4,"COCCNC(=O)C(C)c1ccc(-c2ccccc2)c(F)c1 (stereo not drawn) [Compound 5, 2-(2-fluorobiphenyl-4-yl)-N-(2-methoxyethyl)propanamide]",6500 nM
5,"CCC(COC)NC(=O)C(C)(C)c1ccc(-c2ccccc2)c(F)c1 (stereo not drawn) [Compound 6, 2-(2-fluorobiphenyl-4-yl)-N-(1-methoxybutan-2-yl)-2-methylpropanamide]",3810 nM
6,"CC(C)CNC(=O)C(C)(C)c1ccc(-c2ccsc2)cc1 [Compound 7, N-isobutyl-2-methyl-2-(4-(thiophen-3-yl)phenyl)propanamide]",1240 nM
7,"CC(C)CNC(=O)C(C)(C)c1ccc(-c2cccc([N+](=O)[O-])c2)cc1 [Compound 8, N-isobutyl-2-methyl-2-(3′-nitrobiphenyl-4-yl)propanamide]",400 nM
8,"CC(C)CNC(=O)C(C)(C)c1ccc(-c2cccc(C#N)c2)cc1 [Compound 9, 2-(3′-cyanobiphenyl-4-yl)-N-isobutyl-2-methylpropanamide]",200 nM
9,"COC(=O)c1cccc(-c2ccc(C(C)(C)C(=O)NCC(C)C)cc2)c1 [Compound 10, Methyl 4′-(1-(isobutylamino)-2-methyl-1-oxopropan-2-yl)biphenyl-3-carboxylate]",900 nM
10,"CC(C)CNC(=O)C(C)(C)c1ccc(-c2cccc(O)c2)cc1 [Compound 11, 2-(3′-hydroxybiphenyl-4-yl)-N-isobutyl-2-methylpropanamide]",1900 nM
11,"Cc1ccccc1-c1ccc(C(C)(C)C(=O)NCC(C)C)cc1 [Compound 12, N-isobutyl-2-methyl-2-(2′-methylbiphenyl-4-yl)propanamide]",1900 nM
12,"CC(C)CNC(=O)C(C)(C)c1ccc(-c2ccccc2N)cc1 [Compound 13, 2-(2′-aminobiphenyl-4-yl)-N-isobutyl-2-methylpropanamide]",2200 nM
13,"CC(C)CNC(=O)C(C)(C)c1ccc(-c2ccccc2C#N)cc1 [Compound 14, 2-(2′-cyanobiphenyl-4-yl)-N-isobutyl-2-methylpropanamide]",1900 nM
14,"Cc1cccc(-c2ccc(C(C)(C)C(=O)NCC(C)C)cc2)c1 [Compound 15, N-isobutyl-2-methyl-2-(3′-methylbiphenyl-4-yl)propanamide]",3000 nM
15,"CCOC(=O)c1cccc(-c2ccc(C(C)(C)C(=O)NCC(C)C)cc2)c1 [Compound 16, Ethyl 4′-(1-(isobutylamino)-2-methyl-1-oxopropan-2-yl)biphenyl-3-carboxylate]",2600 nM
16,"CC(C)CNC(=O)C(C)(C)c1ccc(-c2cccc(C(=O)N(C)C)c2)cc1 [Compound 17, 2-(3′-((dimethylamino)carbonyl)biphenyl-4-yl)-N-isobutyl-2-methylpropanamide]",2700 nM
17,"CC(C)CNC(=O)C(C)(C)c1ccc(-c2cccc(OC(C)C)c2)cc1 [Compound 18, N-isobutyl-2-(3′-isopropoxybiphenyl-4-yl)-2-methylpropanamide]",4200 nM
18,"COc1cccc(-c2ccc(C(C)(C)C(=O)NCC(C)C)cc2)c1 [Compound 19, N-isobutyl-2-(3′-methoxybiphenyl-4-yl)-2-methylpropanamide]",4300 nM
19,"CCC(CC)NC(=O)C(C)(C)c1ccc(-c2cncc(C#N)c2)cc1 [Compound 21, 2-(4-(5-cyanopyridin-3-yl)phenyl)-2-methyl-N-(pentan-3-yl)propanamide]",70 nM

# From US7842324B2 (Senomyx, Inc., priority 2005, dated 2010)
